These are literature values, as cited in article PMC12196235, “Enhancing the Pharmacological Properties of Triterpenes Through Acetylation: An Anticancer and Antioxidant Perspective” (Molecules, 2025).

The subject of this series is HPOC (human ovarian carcinoma). To be noted: ref 47; read-out: anticancer IC50 (HPOC); cited from earlier work.

Turning to `C=C(C)[C@@H]1CC[C@]2(CO)CC[C@]3(C)[C@H](CC[C@@H]4[C@@]5(C)CC[C@H](O)C(C)(C)[C@@H]5CC[C@]43C)[C@@H]12` [5a, betulin], the IC50 was 2800 nM.

The IC50 is the point on the concentration scale where inhibition reaches its midpoint.
